Assay results as given in ChEMBL document CHEMBL4414553, “Imidazopyridine-based selective and multifunctional ligands of biological targets associated with psychiatric and neurodegenerative diseases” (Eur J Med Chem, 2019).

Assays:
[1] = Lipophilicity, log D of the compound; type: physicochemical; conditions: octanol/water
[2] = Partition coefficient, log P of the compound; type: physicochemical; conditions: octanol/water
[3] = biological target: Glutamate [NMDA] receptor; assay: Modulator activity at NMDA receptor (unknown origin); type: protein-complex assay, Homo sapiens
[4] = biological target: T1, 5-hydroxytryptamine receptor 4 (Homo sapiens, UniProt Q13639); assay: Inhibition of 5-HT4 receptor (unknown origin)
[5] = biological target: Glycogen synthase kinase-3 (Homo sapiens, UniProt P49840+P49841); assay: Inhibition of GSK3 (unknown origin); type: protein assay
[6] = biological target: T1, 5-hydroxytryptamine receptor 4; assay: Antagonist activity at 5-HT4 receptor (unknown origin)
Adenosine receptor A1 = biological target: T2, Adenosine receptor A1 (Homo sapiens, UniProt P30542); assay: Inhibition of human A1 receptor
T2 sequence (P30542 whole entry): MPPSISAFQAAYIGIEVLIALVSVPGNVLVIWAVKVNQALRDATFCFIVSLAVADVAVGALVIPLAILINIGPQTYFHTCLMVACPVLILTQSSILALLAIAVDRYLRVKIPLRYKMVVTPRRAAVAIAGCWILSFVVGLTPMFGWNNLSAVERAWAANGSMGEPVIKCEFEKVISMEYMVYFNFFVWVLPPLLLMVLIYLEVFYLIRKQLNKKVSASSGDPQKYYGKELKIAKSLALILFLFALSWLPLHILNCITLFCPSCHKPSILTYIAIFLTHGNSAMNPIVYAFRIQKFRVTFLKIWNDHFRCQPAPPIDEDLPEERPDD

Adenosine A2 receptor = Adenosine A2 receptor (Homo sapiens, UniProt P29275+P29274); assay: Inhibition of GFP-tagged human A2 receptor expressed in HEK cells by FRET-binding assay; type: cell-based
[7] = biological target: T3, Fatty-acid amide hydrolase 1 (Homo sapiens, UniProt O00519); assay: Inhibition of FAAH (unknown origin)
T3 sequence (O00519 whole entry): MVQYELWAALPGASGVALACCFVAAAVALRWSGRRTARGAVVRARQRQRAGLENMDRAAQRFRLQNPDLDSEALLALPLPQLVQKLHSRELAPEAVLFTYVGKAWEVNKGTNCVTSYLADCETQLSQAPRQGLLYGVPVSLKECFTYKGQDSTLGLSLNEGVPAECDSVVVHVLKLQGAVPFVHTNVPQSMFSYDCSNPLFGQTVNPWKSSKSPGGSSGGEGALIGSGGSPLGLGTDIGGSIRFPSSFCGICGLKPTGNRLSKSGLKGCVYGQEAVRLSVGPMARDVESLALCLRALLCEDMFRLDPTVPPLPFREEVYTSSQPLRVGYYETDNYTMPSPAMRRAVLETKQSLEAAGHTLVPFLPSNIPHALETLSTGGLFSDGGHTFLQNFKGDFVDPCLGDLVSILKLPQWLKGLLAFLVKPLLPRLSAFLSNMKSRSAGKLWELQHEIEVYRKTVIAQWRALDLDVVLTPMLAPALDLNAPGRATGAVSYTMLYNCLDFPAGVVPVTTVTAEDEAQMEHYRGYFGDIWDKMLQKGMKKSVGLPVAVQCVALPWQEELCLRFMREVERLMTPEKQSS

[8] = Inhibition of MARK (unknown origin); set-up: species or system Homo sapiens
[9] = Inhibition of CBR (unknown origin); set-up: species or system Homo sapiens
[10] = biological target: cAMP and cAMP-inhibited cGMP 3',5'-cyclic phosphodiesterase 10A (Homo sapiens, UniProt Q9Y233); assay: Inhibition of human PDE10
[11] = biological target: T4, 5-hydroxytryptamine receptor 3A (Homo sapiens, UniProt P46098); assay: Antagonist activity at 5-HT3 receptor (unknown origin)
T4 sequence (P46098 whole entry): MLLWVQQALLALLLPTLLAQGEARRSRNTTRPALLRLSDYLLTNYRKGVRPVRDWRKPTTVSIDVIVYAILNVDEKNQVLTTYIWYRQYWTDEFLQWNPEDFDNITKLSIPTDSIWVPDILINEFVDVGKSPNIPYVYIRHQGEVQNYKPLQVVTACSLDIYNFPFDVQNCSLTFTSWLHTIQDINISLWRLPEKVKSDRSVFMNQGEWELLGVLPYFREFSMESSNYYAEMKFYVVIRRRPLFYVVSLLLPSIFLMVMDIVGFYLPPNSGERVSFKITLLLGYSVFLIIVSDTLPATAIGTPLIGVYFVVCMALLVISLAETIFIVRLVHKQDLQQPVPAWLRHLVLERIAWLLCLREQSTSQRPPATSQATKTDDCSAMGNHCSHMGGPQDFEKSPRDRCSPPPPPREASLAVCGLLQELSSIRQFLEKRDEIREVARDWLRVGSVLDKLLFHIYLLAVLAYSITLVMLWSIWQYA

Translocator protein = Translocator protein (Homo sapiens, UniProt P30536); assay: Inhibition of TSPO (unknown origin)
Mus musculus [12] = assay: Inhibition of DYRK1A in mouse at 3 mg/kg relative to control; type: functional
D(4) dopamine receptor = biological target: T5, D(4) dopamine receptor (Homo sapiens, UniProt P21917); assay: Agonist activity at dopamine D4 receptor (unknown origin)
T5 sequence (P21917 whole entry): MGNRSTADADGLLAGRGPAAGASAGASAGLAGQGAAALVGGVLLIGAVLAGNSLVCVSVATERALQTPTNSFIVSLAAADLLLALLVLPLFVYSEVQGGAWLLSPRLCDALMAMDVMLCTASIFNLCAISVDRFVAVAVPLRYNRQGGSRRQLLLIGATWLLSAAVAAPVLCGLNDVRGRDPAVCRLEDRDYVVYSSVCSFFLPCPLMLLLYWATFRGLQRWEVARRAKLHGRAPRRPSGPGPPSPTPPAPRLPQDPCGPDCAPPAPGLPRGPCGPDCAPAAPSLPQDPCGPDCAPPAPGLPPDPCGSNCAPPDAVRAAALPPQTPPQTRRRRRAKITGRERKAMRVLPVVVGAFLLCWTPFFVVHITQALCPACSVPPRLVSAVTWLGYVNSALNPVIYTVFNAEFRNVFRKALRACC

[13] = biological target: Dual specificity tyrosine-phosphorylation-regulated kinase 1A (Homo sapiens, UniProt Q13627); assay: Inhibition of DYRK1A (unknown origin) by TR-FRET assay
Mus musculus [14] = assay: Inhibition of DYRK1A in mouse at 9 mg/kg relative to control; type: functional
Histamine H3 receptor = Histamine H3 receptor (Cavia porcellus, UniProt Q9JI35); assay: Inhibition of Guinea Pig Ileum H3R
[15] = biological target: T6, Sodium- and chloride-dependent glycine transporter 1 (Homo sapiens, UniProt P48067); assay: Inhibition of GlyT1 (unknown origin)
T6 sequence (P48067 whole entry): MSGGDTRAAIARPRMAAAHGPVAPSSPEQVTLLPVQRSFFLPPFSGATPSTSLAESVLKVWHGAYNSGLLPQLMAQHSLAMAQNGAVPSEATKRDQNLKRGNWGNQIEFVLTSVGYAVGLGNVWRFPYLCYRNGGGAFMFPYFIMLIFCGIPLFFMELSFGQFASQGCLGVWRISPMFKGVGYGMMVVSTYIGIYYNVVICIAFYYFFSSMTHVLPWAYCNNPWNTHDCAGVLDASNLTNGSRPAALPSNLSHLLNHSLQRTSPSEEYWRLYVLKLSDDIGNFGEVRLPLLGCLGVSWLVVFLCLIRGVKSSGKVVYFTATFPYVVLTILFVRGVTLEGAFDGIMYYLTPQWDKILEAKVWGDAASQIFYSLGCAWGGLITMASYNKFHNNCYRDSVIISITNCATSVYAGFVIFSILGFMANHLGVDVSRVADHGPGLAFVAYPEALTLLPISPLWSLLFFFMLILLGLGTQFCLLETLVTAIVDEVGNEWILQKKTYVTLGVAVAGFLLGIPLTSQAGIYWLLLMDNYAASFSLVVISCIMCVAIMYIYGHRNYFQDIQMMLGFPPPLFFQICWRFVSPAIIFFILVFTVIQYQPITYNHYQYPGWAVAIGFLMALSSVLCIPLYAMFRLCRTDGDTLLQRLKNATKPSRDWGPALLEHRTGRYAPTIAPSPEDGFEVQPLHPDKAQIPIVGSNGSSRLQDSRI

T1 sequence (Q13639 whole entry): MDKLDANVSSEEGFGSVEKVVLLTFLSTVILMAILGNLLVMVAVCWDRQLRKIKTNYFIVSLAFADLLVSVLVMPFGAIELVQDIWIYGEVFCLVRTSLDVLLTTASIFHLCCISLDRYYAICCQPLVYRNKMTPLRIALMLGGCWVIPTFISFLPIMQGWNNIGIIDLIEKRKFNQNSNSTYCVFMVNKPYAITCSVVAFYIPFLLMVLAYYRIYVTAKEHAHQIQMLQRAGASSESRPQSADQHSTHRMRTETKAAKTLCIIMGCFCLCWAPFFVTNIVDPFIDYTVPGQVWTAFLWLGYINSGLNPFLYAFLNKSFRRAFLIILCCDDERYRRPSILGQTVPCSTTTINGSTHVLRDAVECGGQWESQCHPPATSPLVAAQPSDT
Sequence of Translocator protein (P30536 whole entry): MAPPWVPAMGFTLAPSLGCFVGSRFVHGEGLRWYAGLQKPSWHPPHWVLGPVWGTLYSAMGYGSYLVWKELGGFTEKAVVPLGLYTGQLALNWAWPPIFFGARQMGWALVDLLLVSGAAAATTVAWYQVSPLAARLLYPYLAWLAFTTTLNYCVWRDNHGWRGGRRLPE
Sequence of cAMP and cAMP-inhibited cGMP 3',5'-cyclic phosphodiesterase 10A (Q9Y233 whole entry): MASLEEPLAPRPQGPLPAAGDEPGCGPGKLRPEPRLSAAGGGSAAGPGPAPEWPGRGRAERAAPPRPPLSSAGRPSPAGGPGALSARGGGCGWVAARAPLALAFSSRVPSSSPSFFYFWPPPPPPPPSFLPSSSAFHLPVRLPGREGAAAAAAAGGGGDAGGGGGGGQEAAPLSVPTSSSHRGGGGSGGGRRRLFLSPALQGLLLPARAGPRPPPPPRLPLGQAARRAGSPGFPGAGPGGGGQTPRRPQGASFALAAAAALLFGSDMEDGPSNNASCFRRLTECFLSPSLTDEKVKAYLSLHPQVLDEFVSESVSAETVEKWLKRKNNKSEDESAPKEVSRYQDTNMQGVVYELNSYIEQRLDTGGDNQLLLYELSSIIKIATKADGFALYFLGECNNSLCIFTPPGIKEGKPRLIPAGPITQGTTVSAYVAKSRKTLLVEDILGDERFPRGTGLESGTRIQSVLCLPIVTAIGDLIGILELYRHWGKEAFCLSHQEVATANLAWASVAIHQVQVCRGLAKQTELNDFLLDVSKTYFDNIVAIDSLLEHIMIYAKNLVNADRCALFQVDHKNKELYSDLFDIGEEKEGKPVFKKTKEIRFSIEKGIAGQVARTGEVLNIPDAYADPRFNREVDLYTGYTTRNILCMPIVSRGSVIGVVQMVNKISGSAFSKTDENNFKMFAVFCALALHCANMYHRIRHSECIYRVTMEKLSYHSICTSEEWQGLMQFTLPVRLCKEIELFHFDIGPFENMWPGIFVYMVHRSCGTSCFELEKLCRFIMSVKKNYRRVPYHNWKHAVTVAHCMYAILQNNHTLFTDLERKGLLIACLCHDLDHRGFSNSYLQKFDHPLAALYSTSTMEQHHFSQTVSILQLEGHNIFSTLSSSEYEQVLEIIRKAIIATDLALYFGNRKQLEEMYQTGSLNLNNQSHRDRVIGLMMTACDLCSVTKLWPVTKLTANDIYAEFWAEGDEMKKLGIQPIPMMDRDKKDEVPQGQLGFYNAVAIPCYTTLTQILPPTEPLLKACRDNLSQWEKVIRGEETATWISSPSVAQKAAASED
Sequence of Histamine H3 receptor (Q9JI35 whole entry): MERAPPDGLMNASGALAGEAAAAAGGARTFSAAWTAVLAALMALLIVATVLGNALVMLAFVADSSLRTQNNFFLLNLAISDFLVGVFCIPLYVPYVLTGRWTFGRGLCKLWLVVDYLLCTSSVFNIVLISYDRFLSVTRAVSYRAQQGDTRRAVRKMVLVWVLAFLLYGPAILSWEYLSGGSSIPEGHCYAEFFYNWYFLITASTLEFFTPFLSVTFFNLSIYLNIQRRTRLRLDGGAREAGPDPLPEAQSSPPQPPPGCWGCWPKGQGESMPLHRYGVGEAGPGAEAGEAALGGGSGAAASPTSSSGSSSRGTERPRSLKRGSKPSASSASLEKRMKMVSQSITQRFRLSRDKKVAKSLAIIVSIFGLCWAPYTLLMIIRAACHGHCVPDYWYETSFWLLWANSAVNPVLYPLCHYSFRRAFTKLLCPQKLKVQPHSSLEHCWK

c1cnc2[nH]cnc2c1
logD ([1]; read-out: logD): 0.41 | logP ([2]; read-out: logP): 0.41

Cc1ccc2c(c1)C1CC(C)CCC1N2c1c(C(F)(F)F)nc2c(C)cccn12 (stereo not given)
IC50 [3]: 40000 nM

CC(C)N1C(=O)N(C(=O)NC2CC3CCC(C2)N3C)C2C=CC=CC21 (stereo not given)
EC50 [4]: 72 nM

CCSc1ccncc1NC(=O)c1ccnc2[nH]c(-c3ccc(N4CCCC4)cc3)nc12
IC50 [5]: 3 nM

CCCCN1CCC(CNC(=O)c2cc(Cl)cn3ccnc23)CC1
IC50 [6]: < 10 nM

Cc1ccc(-c2nc3ccccn3c2NC2CCCCC2)cc1
Ki (Adenosine receptor A1): 2060 nM | Ki (Adenosine A2 receptor): > 100000 nM

O=C(COc1ccc(-c2ccccc2)cc1)Nc1cccc(-c2nc3cccnc3[nH]2)c1
IC50 [7]: 13000 nM

N[C@H]1CCCC(F)(F)[C@@H]1NC(=O)c1cc(-c2cnc3ccccn23)cs1
IC50 [8]: 15 nM

CCCN(CCC)C(=O)Cn1c(-c2ccc(Cl)cc2)nc2cccnc21
IC50 [9]: 380 nM

COc1ccc(-c2ccnc3[nH]c(-c4ccc(C(=O)N5CCCCC5)cc4)nc23)cc1
IC50 [5]: 31 nM

Cc1nc(C2CC2c2nc3ccccn3c2C)cc(-n2nc(C)nc2C)n1 (stereo not given)
Ki [10]: 2.1 nM

O=C(NC1CN2CCC1CC2)c1cc(Cl)cn2ccnc12 (stereo not given)
IC50 [11]: 17.5 nM | Ki [11]: 12 nM

c1ccn2ccnc2c1
logD [1]: 0.73 | logP [2]: 0.41

CCCN(CCC)C(=O)Cc1c(-c2ccc(Cl)cc2)nc2c(Cl)cc(Cl)cn12 [ALPDEM]
Ki (Translocator protein): 0.41 nM

CCCN(CCC)C(=O)Cc1c(-c2ccccc2)nc2ccc([N+](=O)[O-])cn12
IC50 (Translocator protein): 11.8 nM | IC50 [9]: 2740 nM

CCCN(CCC)C(=O)Cc1c(-c2ccc(Cl)cc2)nc2c(CC(=O)CCCCC(=O)Nc3ccn([C@@H]4O[C@H](CO)[C@@H](O)[C@@H]4O)c(=O)n3)cccn12
IC50 (Translocator protein): 2.13 nM

Cc1cn2c(N)c(Cl)cc(C(=O)NCC3CCNCC3)c2n1
Ki [11]: 26 nM

CCN1C(=O)N(C(=O)NC2CC3CCC(C2)N3C)C2C=CC=CC21 (stereo not given)
EC50 [4]: 360 nM

Cc1nc2ccc(-c3cc(N)nc(N)c3)nc2n1C(C)C
inhibition in vivo at 3 mg/kg (Mus musculus [12]): 49%

CCC/C=C/COCC(=O)Nc1cccc(-c2nc3cccnc3[nH]2)c1
IC50 [7]: 73000 nM

c1cc2[nH]cnc2cn1
logD ([1]; read-out: logD): 0.03 | logP ([2]; read-out: logP): 0.04

Cn1cnc2cccnc21
logD ([1]; read-out: logD): 0.63 | logP ([2]; read-out: logP): 0.63

CCCN(CCC)C(=O)Cc1c(-c2ccc(Cl)cc2)nc2c(NC(=O)CCC(=O)OCC)cccn12
Ki (Translocator protein): 0.86 nM

CCC/C=C/COCC(=O)Nc1cccc(-c2nc3ncccc3o2)c1
IC50 [7]: 17000 nM

CCCN(CCC)C(=O)Cc1c(-c2ccc(Cl)cc2)nc2c(NC(=O)CN(Cc3ccccn3)Cc3ccccn3)cccn12
Ki (Translocator protein): 293 nM

O=C1NC2CCCCN2C12CCN(CCCN1c3ccccc3CCc3ccc(Cl)cc31)CC2 (stereo not given) [MOSAPRAMINE]
Ki (D(4) dopamine receptor): 0.03 nM

N[C@H]1CCCC(F)(F)[C@@H]1NC(=O)c1nc(-c2cnc3ccccn23)c(Cl)s1
IC50 [8]: 720 nM

CCCN(CCC)C(=O)Cc1c(-c2ccc(Cl)cc2)nc2ccc(Cl)cn12 [ALPIDEM]
IC50 (Translocator protein): 7.9 nM | Ki (Translocator protein): 0.5 to 7 nM | IC50 [9]: 26 nM

Cc1nc2ccc(-c3cc(N)nc(N)c3)nc2n1C1CC1
inhibition in vivo at 3 mg/kg (Mus musculus [12]): 44%

Cc1ccc2c(c1)C1CN(C)CCC1N2CCC(=O)N(C)c1c(C(F)(F)F)nc2ccc(C)cn12 (stereo not given)
IC50 [3]: 33000 nM

CCCN(CCC)C(=O)Cc1c(-c2ccc(Cl)cc2)[nH]c2ccc(Cl)cc12
Ki (Translocator protein): 3.9 nM | IC50 [9]: > 1000 nM

Cn1cnc2cnccc21
logD ([1]; read-out: logD): 0.26 | logP ([2]; read-out: logP): 0.27

O=C(NCCCn1ccnc1)c1ccnc2[nH]c(-c3ccc(C(F)(F)F)cc3)nc12
IC50 [5]: 13 nM

Cc1nc2ccc(-c3cc(N)nc(N)c3)nc2n1C[C@@H](C)Oc1ccccc1
IC50 [13]: 8 nM | inhibition in vivo at 9 mg/kg (Mus musculus [14]): 46%

Cn1nc(N2CCC(OC(=O)N3CCN(C4CCC4)CC3)CC2)ccc1=O [LML-134]
Ki (Histamine H3 receptor): 12 nM

CCCCN(C)C(=O)Cc1c(-c2ccc(OC)cc2)nc2c(Cl)cc(Cl)cn12
Ki (Translocator protein): 0.882 nM | IC50 [9]: > 10000 nM

c1ccn2cncc2c1
logD ([1]; read-out: logD): 0.17 | logP ([2]; read-out: logP): 0.41

CCCN(CCC)C(=O)Cc1c(-c2ccc(Cl)cc2)nc2c(N)cccn12
Ki (Translocator protein): 1.6 nM

Fc1ccc(C(CCCN2CCC(Cc3nc4cccnc4n3Cc3cccs3)CC2)c2ccc(F)cc2)cc1
IC50 [15]: 549 nM

CCCN(CCC)C(=O)Cc1c(-c2ccc(OC)cc2)nc2c(Cl)cc(Cl)cn12
Ki (Translocator protein): 0.537 nM | IC50 [9]: > 10000 nM

O=C(COc1ccc(-c2ccccc2)cc1)Nc1cccc(-c2nc3ncccc3o2)c1
IC50 [7]: 630 nM

Clc1ccc(N2CCN(Cc3cn4ccccc4n3)CC2)cc1Cl
Ki (D(4) dopamine receptor): 0.99 nM

CCCN(CCC)C(=O)Cc1c(-c2ccc([N+](=O)[O-])cc2)nc2c(Cl)cc(Cl)cn12
Ki (Translocator protein): 0.15 nM

CCOCCn1c(CN2CCN(CCCC(c3ccc(F)cc3)c3ccc(F)cc3)CC2)nc2cccnc21
IC50 [15]: 155 nM

O=S(=O)(NCCCn1ccnc1)c1ccnc2[nH]c(-c3ccc(C(F)(F)F)cc3)nc12
IC50 [5]: 1600 nM
